We go through 9 compounds from patent US20260250627A1, “A new bacterial strain Weissella cibaria, a composition comprising it, a pharmaceutical composition for use, a dietary supplement, a probiotic preparation, a bacterial starter culture for making bread, sourdough, bread, a method for the production of bread, a method for microbiological production …” (INSTYTUT BIOCHEMII I BIOFIZVKI PAN, priority 2023, published 2026).

In brackets after ≈: the same amount, converted by molar mass. Like-named read-outs stand apart in the source and are kept apart here.

In the experiment the test system is IBB3394 strain (KKP 2094p). As to the kind of experiment: Antibiotic sensitivity test with E-test strips (Example 11). The format is cell-based, Weissella cibaria. Conditions: 48 h; for MIC: Weissella cibaria, read-out: Minimum inhibitory concentration (MIC) IBB3394. The method, then: The safety assessment of the selected strain of Weissella sp. IBB3394 was carried out by testing antibiotic susceptibility using E-test strips (bioMerieux) in accordance with the manufacturer's recommendations. The tested strain was seeded on IST-MRS solid medium and incubated at 30° C. in aerobic conditions. […] Antibiotic strips were placed on the surface of the plate and the plates were incubated at 30° C. for 48 h in aerobic conditions.

The mark [1] stands for this setting: E-test strips, IST-MRS, 30° C., aerobic.

On to `CC1(C)S[C@@H]2[C@H](NC(=O)[C@H](N)c3ccccc3)C(=O)N2[C@H]1C(=O)O` [AM, ampicillin], for which the MIC under setting [1] lay in the range of 0.38 to 0.5 µg/mL (≈ 1.09 to 1.43 µM).

Take `O=C(N[C@H](CO)[C@H](O)c1ccc([N+](=O)[O-])cc1)C(Cl)Cl` [CL, chloramphenicol]: the MIC under setting [1] fell in the range of 2 to 3 µg/mL (≈ 6.19 to 9.28 µM). Turning to `CCC[C@@H]1C[C@@H](C(=O)N[C@@H]([C@H]2O[C@H](SC)[C@H](O)[C@@H](O)[C@H]2O)[C@H](C)Cl)N(C)C1` [CM, clindamycin], the MIC under setting [1] came to 0.016 µg/mL (≈ 0.0376 µM). Regarding `CC[C@H]1OC(=O)[C@H](C)[C@@H](O[C@H]2C[C@@](C)(OC)[C@@H](O)[C@H](C)O2)[C@H](C)[C@@H](O[C@@H]2O[C@H](C)C[C@H](N(C)C)[C@H]2O)[C@](C)(O)C[C@@H](C)C(=O)[C@H](C)[C@@H](O)[C@]1(C)O` [EM, erythromycin], the MIC under setting [1] was determined as 0.094 µg/mL (≈ 0.128 µM). As to `NC[C@H]1O[C@H](O[C@H]2[C@H](O)[C@@H](O[C@H]3O[C@H](CO)[C@@H](O)[C@H](N)[C@H]3O)[C@H](N)C[C@@H]2N)[C@H](O)[C@@H](O)[C@@H]1O` [KM, kanamycin], under setting [1], the MIC was determined as 16 µg/mL (≈ 33 µM).

Turning to `[H]/N=C(/N)N[C@H]1[C@H](O)[C@@H](O)[C@H](O[C@@H]2O[C@@H](C)[C@](O)(C=O)[C@H]2O[C@@H]2O[C@@H](CO)[C@H](O)[C@@H](O)[C@@H]2NC)[C@@H](N/C(N)=N\[H])[C@@H]1O` [SM, streptomycin], the MIC under setting [1] was 8 µg/mL (≈ 13.8 µM). Take `CN(C)[C@@H]1C(O)=C(C(N)=O)C(=O)[C@@]2(O)C(O)=C3C(=O)c4c(O)cccc4[C@@](C)(O)[C@H]3C[C@@H]12` [TC, tetracycline]: the MIC under setting [1] worked out at 2 µg/mL (≈ 4.5 µM). Take `CN[C@H](CC(C)C)C(=O)N[C@H]1C(=O)N[C@@H](CC(N)=O)C(=O)N[C@H]2C(=O)N[C@H]3C(=O)N[C@H](C(=O)N[C@H](C(=O)O)c4cc(O)cc(O)c4-c4cc3ccc4O)[C@H](O)c3ccc(c(Cl)c3)Oc3cc2cc(c3O[C@@H]2O[C@H](CO)[C@@H](O)[C@H](O)[C@H]2O[C@H]2C[C@](C)(N)[C@H](O)[C@H](C)O2)Oc2ccc(cc2Cl)[C@H]1O` [VA, vancomycin]: the MIC is greater than 256 µg/mL.

Regarding gentamicin [GM], under setting [1], the “Minimum inhibitory concentration (MIC) IBB3394” value turned out to be 4 µg/mL.
